Assay results from ChEMBL document CHEMBL1201862, “PubChem BioAssay data set” (2004).
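96-well plates; 48 h exposure; 5 concentrations. Endpoints by linear interpolation between flanking doses. Not reached: highest tested concentration assigned. GI50 marks 50% less growth.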 Calls of active or inactive are those of the source. Cut-off read from the data, not from the text of the source: active = GI50 up to about 1.1 µM and inactive = higher.

Assays:
Assay in all cases: NCI tumour cell line growth inhibition, 48 h
A549 = system: A549
CCRF-CEM = system: CCRF-CEM
DMS-273 = system: DMS-273
HCC 2998 = system: HCC 2998
HCT-15 = system: HCT-15
HOP-18 = system: HOP-18
KM-20L2 = system: KM-20L2
M19-MEL = system: M19-MEL
MCF7 = system: MCF7
SK-MEL-5 = system: SK-MEL-5
SN12C = system: SN12C
SNB-75 = system: SNB-75
UACC-257 = system: UACC-257
ACHN = system: ACHN
HOP-92 = system: HOP-92
M14 = system: M14
SR = system: SR
BT-549 = system: BT-549
MDA-MB-231 = system: MDA-MB-231
T47D = system: T47D

Structure (SMILES) | GI50 (A549) | GI50 (CCRF-CEM) | GI50 (DMS-273) | GI50 (HCC 2998) | GI50 (HCT-15) [µM] | GI50 (HOP-18) | GI50 (KM-20L2) | GI50 (M19-MEL) | GI50 (MCF7) | GI50 (SK-MEL-5) | GI50 (SN12C) | GI50 (SNB-75) | GI50 (UACC-257) | GI50 (ACHN) | GI50 (HOP-92) | GI50 (M14) | GI50 (SR) | GI50 (BT-549) | GI50 (MDA-MB-231) | GI50 (T47D)
C=CC1(NC(=O)c2ccccc2)CCC(C(C)(C)C)CC1 (stereo unspecified) | 30.5 µM (inactive) | 18.5 µM (inactive) | 32.2 µM (inactive) | 36.7 µM (inactive) | 32.4 | 47.5 µM (inactive) | 19.1 µM (inactive) | 29.5 µM (inactive) | 30.8 µM (inactive) | 19.9 µM (inactive) | 35.2 µM (inactive) | 31.5 µM (inactive) | 26.4 µM (inactive) | – | – | – | – | – | – | –
Cc1ccccc1NC(=O)C(=O)C(C1OC(=O)c2ccccc21)[N+](=O)[O-] (stereo unspecified) | > 100 µM (inactive) | 68.7 µM (inactive) | > 100 µM (inactive) | > 100 µM (inactive) | > 100 | – | > 100 µM (inactive) | > 100 µM (inactive) | – | > 100 µM (inactive) | > 100 µM (inactive) | > 100 µM (inactive) | > 100 µM (inactive) | > 100 µM (inactive) | > 100 µM (inactive) | > 100 µM (inactive) | > 100 µM (inactive) | – | – | –
S=C(NCCCCCCNC(=S)Nc1c2ccccc2nc2ccccc12)Nc1c2ccccc2nc2ccccc12 | 87.5 µM (inactive) | 63 µM (inactive) | 65.9 µM (inactive) | > 96.2 µM (inactive) | 76.4 | > 100 µM (inactive) | 79.4 µM (inactive) | > 100 µM (inactive) | 49 µM (inactive) | > 93.1 µM (inactive) | > 83.8 µM (inactive) | 32.9 µM (inactive) | > 90.8 µM (inactive) | – | 52.4 µM (inactive) | – | – | – | – | –
O=C(O)C1CCC(=O)N1S(=O)(=O)c1ccccc1 (stereo unspecified) | > 100 µM (inactive) | > 100 µM (inactive) | > 100 µM (inactive) | > 100 µM (inactive) | > 100 | > 100 µM (inactive) | > 100 µM (inactive) | > 100 µM (inactive) | > 100 µM (inactive) | > 100 µM (inactive) | > 100 µM (inactive) | > 100 µM (inactive) | > 100 µM (inactive) | – | 99.1 µM (inactive) | – | – | – | – | –
O=c1oc2cc(O)ccc2c2oc3cc(O)ccc3c12 [COUMESTROL] | 43.1 µM (inactive) | 8.81 µM (inactive) | 54.7 µM (inactive) | 53.6 µM (inactive) | 54.5 | > 125 µM (inactive) | 41 µM (inactive) | 92.7 µM (inactive) | 96.8 µM (inactive) | 9.91 µM (inactive) | 13.2 µM (inactive) | 94.8 µM (inactive) | 87.9 µM (inactive) | – | > 118 µM (inactive) | – | – | – | – | –
CSCSCC(N)CO.Cc1[nH]c(=O)[nH]c(=O)c1/C=C/C(=O)O | > 625 µM (inactive) | > 625 µM (inactive) | > 625 µM (inactive) | > 625 µM (inactive) | > 625 | > 625 µM (inactive) | > 625 µM (inactive) | > 625 µM (inactive) | > 625 µM (inactive) | > 625 µM (inactive) | > 625 µM (inactive) | 447 µM (inactive) | > 625 µM (inactive) | – | 583 µM (inactive) | – | – | – | – | –
COc1ccccc1-c1cc(O)c2c(C)ccnc2n1 | 43.7 µM (inactive) | 35.6 µM (inactive) | – | 64.9 µM (inactive) | 28.4 | – | – | – | 26.5 µM (inactive) | – | 41 µM (inactive) | 12.9 µM (inactive) | 47.9 µM (inactive) | 28.4 µM (inactive) | 66.7 µM (inactive) | 42.4 µM (inactive) | 14.2 µM (inactive) | 7.1 µM (inactive) | 26.7 µM (inactive) | 16.2 µM (inactive)
O=C1OCc2cccc3c2-c2c1cccc2C(=O)OC3 | – | – | – | > 100 µM (inactive) | > 100 | > 100 µM (inactive) | > 100 µM (inactive) | > 100 µM (inactive) | – | > 100 µM (inactive) | – | – | – | – | 38.5 µM (inactive) | > 100 µM (inactive) | > 100 µM (inactive) | – | – | –
COC(=O)N1CC2C3C4CC(C(c5ccccc5)=C4c4ccccc4)C3C21 (stereo unspecified) | 18 µM (inactive) | 14.9 µM (inactive) | – | 16.3 µM (inactive) | – | – | – | – | 20 µM (inactive) | 11.5 µM (inactive) | 17.6 µM (inactive) | 21.8 µM (inactive) | 13.7 µM (inactive) | 23.3 µM (inactive) | 11.7 µM (inactive) | 26.8 µM (inactive) | 11.1 µM (inactive) | 16 µM (inactive) | 7.35 µM (inactive) | 9.82 µM (inactive)
BrC1=CN2C[n+]3cc(Br)c4ccccc4c3N=C2c2ccccc21 | 46.3 µM (inactive) | 10.7 µM (inactive) | – | – | 58.6 | – | – | – | 4.42 µM (inactive) | 3.34 µM (inactive) | 19.7 µM (inactive) | 2.92 µM (inactive) | 22 µM (inactive) | 14.8 µM (inactive) | 10.5 µM (inactive) | 5.92 µM (inactive) | 3.18 µM (inactive) | 16.9 µM (inactive) | 15 µM (inactive) | 4.14 µM (inactive)
Cc1ccc(OP2(=O)Oc3ccc4ccccc4c3CN2c2ccc(Cl)cc2)cc1C (stereo unspecified) | > 100 µM (inactive) | > 100 µM (inactive) | > 100 µM (inactive) | > 100 µM (inactive) | > 100 | > 100 µM (inactive) | > 100 µM (inactive) | > 100 µM (inactive) | > 100 µM (inactive) | > 100 µM (inactive) | > 100 µM (inactive) | > 100 µM (inactive) | > 100 µM (inactive) | – | > 100 µM (inactive) | – | – | – | – | –
O=[N+]([O-])c1cnccc1-n1nnc2ccccc21 | 25.1 µM (inactive) | 19.8 µM (inactive) | 14.1 µM (inactive) | 19.7 µM (inactive) | 18 | 14.1 µM (inactive) | 29.2 µM (inactive) | 15.3 µM (inactive) | 13.4 µM (inactive) | 13.9 µM (inactive) | 16 µM (inactive) | 15.2 µM (inactive) | 14.7 µM (inactive) | – | 18.8 µM (inactive) | – | – | – | – | –
